This is an account of results in ChEMBL document CHEMBL1833927, “Constructing transferrin receptor targeted drug delivery system by using doxorubicin hydrochloride and vanadocene dichloride” (Bioorg Med Chem Lett, 2011).

For experiment [1], the target named is Serotransferrin (Homo sapiens) (UniProt P02787). The experiment in a line: Binding affinity to human serum transferrin after 12 hrs at pH 7.4 by spectrofluorometer method.
Experiment [2] has the same target. Put plainly: Binding affinity to human apo transferrin after 12 hrs at pH 7.4 by spectrofluorometer method.
Experiment [3] shares this target. Put plainly: Binding affinity to human serum transferrin after 12 hrs at pH 4.8 by spectrofluorometer method.
The test system of experiment [4] is A549. Put plainly: Antiproliferative activity against human A549 cells by MTT assay in presence of human serum transferrin/apo transferrin. The class given is functional, cell-based.
Experiment [5] deals with A549. Put plainly: Antiproliferative activity against human A549 cells by MTT assay. The class given is functional, cell-based.
Experiment [6] deals with Serotransferrin (Homo sapiens) (UniProt P02787). The experiment in a line: Binding affinity to human apo transferrin after 12 hrs at pH 4.8 by spectrofluorometer method.

Serotransferrin (Homo sapiens), sequence (P02787 whole entry): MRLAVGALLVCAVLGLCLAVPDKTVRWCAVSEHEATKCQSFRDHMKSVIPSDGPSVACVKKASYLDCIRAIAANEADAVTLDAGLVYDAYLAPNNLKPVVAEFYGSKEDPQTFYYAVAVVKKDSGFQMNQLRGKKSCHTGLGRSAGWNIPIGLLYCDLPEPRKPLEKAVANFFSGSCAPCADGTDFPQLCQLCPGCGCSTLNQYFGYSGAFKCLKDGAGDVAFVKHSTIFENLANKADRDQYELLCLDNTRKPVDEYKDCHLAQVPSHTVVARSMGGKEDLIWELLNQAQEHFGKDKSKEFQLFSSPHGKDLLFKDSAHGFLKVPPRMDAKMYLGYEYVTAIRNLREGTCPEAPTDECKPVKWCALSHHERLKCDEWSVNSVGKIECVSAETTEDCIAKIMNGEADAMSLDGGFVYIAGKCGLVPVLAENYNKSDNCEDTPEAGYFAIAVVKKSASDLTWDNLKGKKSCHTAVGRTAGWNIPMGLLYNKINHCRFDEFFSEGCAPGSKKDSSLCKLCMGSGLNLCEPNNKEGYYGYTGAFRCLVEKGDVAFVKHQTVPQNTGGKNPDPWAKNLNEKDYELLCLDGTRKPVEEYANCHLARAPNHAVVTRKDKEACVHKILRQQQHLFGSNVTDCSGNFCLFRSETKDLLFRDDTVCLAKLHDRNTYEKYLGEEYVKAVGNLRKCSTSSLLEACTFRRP

On to `COc1cccc2c1C(=O)c1c(O)c3c(c(O)c1C2=O)C[C@@](O)(C(=O)CO)C[C@@H]3O[C@H]1C[C@H](N)[C@H](O)[C@H](C)O1`, for which the Ka is 32600 M⁻¹ in experiment [1], 74500 M⁻¹ in experiment [2], 41900 M⁻¹ in experiment [3] and 271000 M⁻¹ in experiment [6]. Also, the Activity result in the experiment with A549 [4] and in the experiment with A549 [5] was “Dose-dependent effect” in each case.
